Laboratory results taken from US20240252506A1 (Hoffmann-La Roche Inc., priority 2021, published 2024).
Values after ≈ are worked out from the molar mass of the structure shown.

system: Escherichia coli ATCC 25922; test: Minimal Inhibitory Concentration (MIC) determination, broth microdilution (CLSI M07-A10); assay type: cell-based; conditions: Escherichia coli, ATCC25922, strain Escherichia coli ATCC 25922, 18-24 hours at 35±2° C., lowest concentration for complete growth inhibition (no visible growth), read-out: Escherichia coli growth inhibition MIC
Procedure, shortened: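 MIC read visually as the lowest concentration with complete growth inhibition after 18-24 h at 35±2° C, ambient air. Method follows CLSI M07-A10 broth microdilution, two-fold compound series, inoculum standardized to 0.5 McFarland then diluted 1:200.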

Row | Compound | MIC [µg/mL]
1 | O=C1COc2ccc(N3CC4(CCN(CC5Cc6cc7nc([C@@H]8C[C@@H](O)CN8)oc7c(F)c6C5)CC4)OC3=O)nc2N1 (stereo partly drawn) [Example 147, 6-[8-[[8-Fluoro-2-[(2S,4R)-4-hydroxypyrrolidin-2-yl]-6,7-dihydro-5H-cyclopenta[f][1,3]benzoxazol-6-yl]methyl]-2-oxo-1-oxa-3,8-diazaspiro[4.5]decan-3-yl]-4H-pyrido[3,2-b][1,4]oxazin-3-one] | 0.5 (≈ 0.864 µM)
2 | CC(=O)N(C)CCn1nc2c(F)c3c(c(F)c2n1)CC(CN1CCC2(CC1)CN(c1cnc4c(n1)NC(=O)CO4)C(=O)O2)C3 [Example 154, N-[2-[4,8-difluoro-6-[[2-oxo-3-(3-oxo-4H-pyrazino[2,3-b][1,4]oxazin-6-yl)-1-oxa-3,8-diazaspiro[4.5]decan-8-yl]methyl]-6,7-dihydro-5H-cyclopenta[f]benzotriazol-2-yl]ethyl]-N-methyl-acetamide] | 2 (≈ 3.27 µM)
3 | O=C1COc2ncc(N3CC4(CCN(CC5Cc6c(c(F)c7nn(CCNC(=O)[C@H]8CCCN8)nc7c6F)C5)CC4)OC3=O)nc2N1 [Example 158, (2R)—N-[2-[4,8-Difluoro-6-[[2-oxo-3-(3-oxo-4H-pyrazino[2,3-b][1,4]oxazin-6-yl)-1-oxa-3,8-diazaspiro[4.5]decan-8-yl]methyl]-6,7-dihydro-5H-cyclopenta[f]benzotriazol-2-yl]ethyl]pyrrolidine-2-carboxamide] | 0.25 (≈ 0.383 µM)
4 | CNCC(=O)NCCn1nc2c(F)c3c(c(F)c2n1)CC(CN1CCC2(CC1)CN(c1cnc4c(n1)NC(=O)CO4)C(=O)O2)C3 [Example 159, N-[2-[4,8-difluoro-6-[[2-oxo-3-(3-oxo-4H-pyrazino[2,3-b][1,4]oxazin-6-yl)-1-oxa-3,8-diazaspiro[4.5]decan-8-yl]methyl]-6,7-dihydro-5H-cyclopenta[f]benzotriazol-2-yl]ethyl]-2-(methylamino)acetamide] | 0.25 (≈ 0.399 µM)
5 | O=C1COc2ncc(N3CC4(CCN(CC5Cc6c(c(F)c7c(nnn7CCNC(=O)[C@H]7CCCN7)c6F)C5)CC4)OC3=O)nc2N1 (stereo partly drawn) [Example 162, (2R)-N-[2-[4,8-difluoro-6-[[2-oxo-3-(3-oxo-4H-pyrazino[2,3-b][1,4]oxazin-6-yl)-1-oxa-3,8-diazaspiro[4.5]decan-8-yl]methyl]-6,7-dihydro-5H-cyclopenta[f]benzotriazol-1-yl]ethyl]pyrrolidine-2-carboxamide] | 1 (≈ 1.53 µM)
6 | O=C1COc2ncc(N3CC4(CCN(CC5Cc6c(c(F)c7nn(CCNC(=O)[C@H]8C[C@H](O)CN8)nc7c6F)C5)CC4)OC3=O)nc2N1 [Example 163, (2R,4S)-N-[2-[4,8-difluoro-6-[[2-oxo-3-(3-oxo-4H-pyrazino[2,3-b][1,4]oxazin-6-yl)-1-oxa-3,8-diazaspiro[4.5]decan-8-yl]methyl]-6,7-dihydro-5H-cyclopenta[f]benzotriazol-2-yl]ethyl]-4-hydroxy-pyrrolidine-2-carboxamide] | 0.5 (≈ 0.748 µM)
7 | O=C1COc2ncc(N3CC4(CCN(CC5Cc6c(c(F)c7c(nnn7CCNC(=O)[C@H]7C[C@H](O)CN7)c6F)C5)CC4)OC3=O)nc2N1 (stereo partly drawn) [Example 164, (2R,4S)-N-[2-[4,8-difluoro-6-[[2-oxo-3-(3-oxo-4H-pyrazino[2,3-b][1,4]oxazin-6-yl)-1-oxa-3,8-diazaspiro[4.5]decan-8-yl]methyl]-6,7-dihydro-5H-cyclopenta[f]benzotriazol-1-yl]ethyl]-4-hydroxy-pyrrolidine-2-carboxamide] | 2 (≈ 2.99 µM)

The next lines start with the values.

Row | MIC [µg/mL] | Compound
8 | 1 (≈ 1.53 µM) | C[C@H](C(=O)NCCn1nnc2c(F)c3c(c(F)c21)CC(CN1CCC2(CC1)CN(c1cnc4c(n1)NC(=O)CO4)C(=O)O2)C3)N(C)C (stereo partly drawn) [Example 149, (2R)—N-[2-[4,8-Difluoro-6-[[2-oxo-3-(3-oxo-4H-pyrazino[2,3-b][1,4]oxazin-6-yl)-1-oxa-3,8-diazaspiro[4.5]decan-8-yl]methyl]-6,7-dihydro-5H-cyclopenta[f]benzotriazol-1-yl]ethyl]-2-(dimethylamino)propanamide]
9 | 1 (≈ 1.53 µM) | C[C@H](C(=O)NCCn1nc2c(F)c3c(c(F)c2n1)CC(CN1CCC2(CC1)CN(c1cnc4c(n1)NC(=O)CO4)C(=O)O2)C3)N(C)C [Example 150, (2R)-N[2-[4,8-difluoro-6-[[2-oxo-3-(3-oxo-4H-pyrazino[2,3-b][1,4]oxazin-6-yl)-1-oxa-3,8-diazaspiro[4.5]decan-8-yl]methyl]-6,7-dihydro-5H-cyclopenta[f]benzotriazol-2-yl]ethyl]-2-(dimethylamino)propanamide]
10 | 0.5 (≈ 0.804 µM) | C[C@H](C(=O)NCc1nc2cc3c(c(F)c2[nH]1)CC(CN1CCC2(CC1)CN(c1cnc4c(n1)NC(=O)CO4)C(=O)O2)C3)N(C)C (stereo partly drawn) [Example 151]
11 | 1 (≈ 1.53 µM) | CN(C)CC(=O)N(C)CCn1nc2c(F)c3c(c(F)c2n1)CC(CN1CCC2(CC1)CN(c1cnc4c(n1)NC(=O)CO4)C(=O)O2)C3 [Example 155, N-[2-[4,8-difluoro-6-[[2-oxo-3-(3-oxo-4H-pyrazino[2,3-b][1,4]oxazin-6-yl)-1-oxa-3,8-diazaspiro[4.5]decan-8-yl]methyl]-6,7-dihydro-5H-cyclopenta[f]benzotriazol-2-yl]ethyl]-2-(dimethylamino)-N-methyl-acetamide]
12 | 0.5 | CNCC(=O)NCc1nc2cc3c(c(F)c2[nH]1)CC(CN1CCC2(CC1)CN(c1cnc4c(n1)NC(=O)CO4)C(=O)O2)C3.O=C(O)C(F)(F)F (stereo not drawn) [Example 160, N-[[8-fluoro-6-[[2-oxo-3-(3-oxo-4H-pyrazino[2,3-b][1,4]oxazin-6-yl)-1-oxa-3,8-diazaspiro[4.5]decan-8-yl]methyl]-1,5,6,7-tetrahydrocyclopenta[f]benzimidazol-2-yl]methyl]-2-(methylamino)acetamide; 2,2,2-trifluoroacetic acid]
13 | 0.25 | O=C(O)C(F)(F)F.O=C1COc2ncc(N3CC4(CCN(CC5Cc6cc7nc(CNC(=O)[C@H]8CCCN8)[nH]c7c(F)c6C5)CC4)OC3=O)nc2N1 (stereo partly drawn) [Example 161, (2R)-N-[[8-fluoro-6-[[2-oxo-3-(3-oxo-4H-pyrazino[2,3-b][1,4]oxazin-6-yl)-1-oxa-3,8-diazaspiro[4.5]decan-8-yl]methyl]-1,5,6,7-tetrahydrocyclopenta[f]benzimidazol-2-yl]methyl]pyrrolidine-2-carboxamide; 2,2,2-trifluoroacetic acid]

same assay, conditions: strain Escherichia coli ATCC 25922, 18-24 hours at 35±2° C., lowest concentration for complete growth inhibition (no visible growth)

Row | Escherichia coli growth inhibition MIC [µg/mL] | Compound
14 | 0.5 | CN[C@@H](CO)c1nc2cc3c(c(F)c2o1)CC(CN1CCC2(CC1)CN(c1cnc4c(n1)NC(=O)CO4)C(=O)O2)C3 (stereo partly drawn) [Example 146, 6-[8-[[8-Fluoro-2-[(1S)-2-hydroxy-1-(methylamino)ethyl]-6,7-dihydro-5H-cyclopenta[f][1,3]benzoxazol-6-yl]methyl]-2-oxo-1-oxa-3,8-diazaspiro[4.5]decan-3-yl]-4H-pyrazino[2,3-b][1,4]oxazin-3-one]
15 | 1 | O=C1COc2ccc(N3CC4(CCN(CC5Cc6cc7nc([C@@H]8C[C@@H](O)CN8)oc7c(F)c6C5)CC4)OC3=O)nc2N1 (stereo partly drawn) [Example 148, 6-[8-[[8-Fluoro-2-[(2S,4R)-4-hydroxypyrrolidin-2-yl]-6,7-dihydro-5H-cyclopenta[f][1,3]benzoxazol-6-yl]methyl]-2-oxo-1-oxa-3,8-diazaspiro[4.5]decan-3-yl]-4H-pyrido[3,2-b][1,4]oxazin-3-one]
